In the assay the target is T1, Ephrin type-A receptor 4 [1-949,A922V] (Homo sapiens, UniProt P54764, A922V).
T1 construct: 1-949
Description: Enzyme-linked Immunosorbent Assay. The note with it: pH 7.5. As for the experimental part: Protein A-coasted wells (from Pierce Biotechnology) were used to immobilize Eph receptor Fc fusion proteins (from R&D systems)incubated at 1 ug/ml in TBST.
`Cc1ccc(C)n1-c1ccc(C(=O)O)c(O)c1` [4-(2,5-dimethyl-1H-pyrrol-1-yl)-2-hydroxybenzoic acid] returned an IC50 of 1.3 µM.
The result for `O=C(/C=C/c1ccc(-c2ccc(O)c(C(=O)O)c2)o1)/C=C/c1ccc(-c2ccc(O)c(C(=O)O)c2)o1` [Salicylic acid derivative, 76D10] reads 2.6 µM; that for `Cc1ccc(C)n1-c1ccc(O)c(C(=O)O)c1` [Salicylic acid derivative, compound 2], 10 µM.
As for `O=C(O)/C=C/c1ccc(-c2ccc(O)c(C(=O)O)c2)o1` [Salicylic acid derivative, 76A5], the IC50 was over 500 µM.
Take `O=C(O)c1ccc(-c2ccc(O)c(C(=O)O)c2)o1` [Salicylic acid derivative, 76B8]: the IC50 is over 500 µM.

The record behind these values is BindingDB's records for doi:10.1111/j.1747-0285.2011.01199.x (Sanford-Burnham Medical Research Institute, 2011).
